Earlier results, collected in patent US20170020833A1, “METHOD FOR TREATING AND/OR PREVENTING ACNE SCARS WITH A FIXED COMBINATION OF ADAPALENE OR ITS SALTS AND BENZOYL PEROXIDE” (GALDERMA RESEARCH & DEVELOPMENT, priority 2014, published 2017).

Test system: procollagen, MMP-1, 3 and MMP-9 in photodamage skin
Details: oral or topical; leading to MMP-1, 3 and MMP-9 decrease in relation to treatment duration

For `CC1=C(/C=C/C(C)=C/C=C/C(C)=C\C(=O)O)C(C)(C)CCC1` [isotretinoin], the “Effect on UV-induced loss of procollagen” value is given as “protects against UV-induced loss of procollagen”.
